In assay [1] the target is T1, proline utilization A (SmPutA) (Sinorhizobium meliloti, UniProt F7X6I3).
T1 construct: gene putA; bifunctional PRODH-GSALDH enzyme, His tag removed
T1 sequence (F7X6I3 1-1233): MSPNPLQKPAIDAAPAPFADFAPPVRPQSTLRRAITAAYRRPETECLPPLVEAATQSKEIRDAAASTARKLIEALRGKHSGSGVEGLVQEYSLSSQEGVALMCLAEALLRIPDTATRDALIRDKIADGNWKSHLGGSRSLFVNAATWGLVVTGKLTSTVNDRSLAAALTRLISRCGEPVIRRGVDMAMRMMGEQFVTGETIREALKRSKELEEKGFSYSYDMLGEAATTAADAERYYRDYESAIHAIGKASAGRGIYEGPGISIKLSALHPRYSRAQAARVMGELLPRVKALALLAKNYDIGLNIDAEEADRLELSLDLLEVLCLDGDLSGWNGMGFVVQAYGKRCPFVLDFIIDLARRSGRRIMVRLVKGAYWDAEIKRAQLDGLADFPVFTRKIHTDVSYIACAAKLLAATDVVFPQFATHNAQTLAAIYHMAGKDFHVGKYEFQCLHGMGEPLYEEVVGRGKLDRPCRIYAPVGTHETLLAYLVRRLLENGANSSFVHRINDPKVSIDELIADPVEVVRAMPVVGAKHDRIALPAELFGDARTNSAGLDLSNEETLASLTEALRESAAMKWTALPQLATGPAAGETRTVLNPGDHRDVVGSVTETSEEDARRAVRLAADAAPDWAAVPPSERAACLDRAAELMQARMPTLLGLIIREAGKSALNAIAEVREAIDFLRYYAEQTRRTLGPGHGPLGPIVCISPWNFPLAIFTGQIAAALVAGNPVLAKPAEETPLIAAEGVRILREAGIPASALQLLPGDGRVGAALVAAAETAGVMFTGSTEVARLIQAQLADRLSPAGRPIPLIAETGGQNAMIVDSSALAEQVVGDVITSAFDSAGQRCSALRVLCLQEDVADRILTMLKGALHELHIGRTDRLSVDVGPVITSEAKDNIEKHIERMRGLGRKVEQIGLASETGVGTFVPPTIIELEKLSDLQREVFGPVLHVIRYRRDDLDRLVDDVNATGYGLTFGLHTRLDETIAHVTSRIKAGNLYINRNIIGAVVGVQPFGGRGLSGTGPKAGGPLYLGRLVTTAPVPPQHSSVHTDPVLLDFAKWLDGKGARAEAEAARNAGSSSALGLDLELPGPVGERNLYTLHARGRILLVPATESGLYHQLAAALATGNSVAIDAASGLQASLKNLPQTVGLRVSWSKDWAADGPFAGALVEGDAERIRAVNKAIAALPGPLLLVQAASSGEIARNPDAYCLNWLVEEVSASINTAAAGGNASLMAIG
Briefly: X-ray crystal structure ([…] Å); Ki from GSALDH activity inhibition. The class given is biochemical.

The target in assay [2] is T1, proline utilization A (SmPutA). The description is as above. The format is biochemical. This is another data set of the same source.

Where two headings read alike, the source gives them in different places.

The term Ki denotes a dissociation constant, usually derived from enzyme kinetics or from competition with a known ligand. A high value points to weaker binding.

Take `O=C(O)c1cccc2c1OCCO2` [compound 7, 7]: affinity in assay [1] was put at a Ki of 320 µM.

`O=C(O)C1CCCNC1` (racemic) [compound 13, 13] gave a Ki in assay [2] of 1.5 mM.
